In one test the target is T1, mvNei1 (Acanthamoeba polyphaga mimivirus, UniProt Q5UQ00).
T1 construct: 6His (C); made in house; host or cells: E. coli Rosetta2 (DE3)
Put plainly: mvNei1 DNA glycosylase/AP lyase activity assay on DHU:G 24-mer duplex. Type of test: biochemical. The following applies: for effect on mvNei1 catalytic activity: 0.2 mM compound. On the procedure:
Figure 4 Comparative analysis of the effect of 2TX and TXn on Fpg/Nei DNA glycosylases. Enzyme activities were measured as described in the Figure 1 legend using […] of a 5′-[^32P]-24-mer DNA duplex containing either an 8-oxoG opposite C for LlFpg or a […] (DHU) opposite G for hNeil1 and mvNei1. The DNA probe was incubated with the indicated protein concentration and 0.2 mM TXn compounds in the presence or absence of 1 mM dithiothreitol (DTT) and TCEP (a representative experiment is illustrated by the upper histograms). The DNA probe for EMSA was 0.1 nM of 5′-[^32P]-[…] DNA duplex containing THF with LlFpg and mvNei1 (bottom panels: gel autoradiography) with the indicated conditions and as described in ‘Materials and Methods’.
Fpg, hNeil1 and mvNei1 are bifunctional DNA glycosylases associated with concerted DNA glycosylase activity (cleavage of the N-glycosidic bond between the base lesion and the C1′ of the deoxyribose) and AP lyase activity that comprises the successive cleavage of the phosphodiester bonds at the 3′ and 5′ of the resulting abasic (AP) site, respectively (β, δ-elimination). Thus, AP sites that result from the excision of the damaged base are quantitatively converted into one nucleoside gap by these enzymes. The DNA glycosylase/AP lyase activity of each enzyme was measured by incubating 20 nM of 24-mer DNA duplexes ([OG:C] and [DHU:G] for Fpg and hNeil1/mvNei1, respectively) 5′-labeling on the damaged strand (see above) with 2 nM of Fpg, or mvNei1 for 15 min or, with 20 nM of hNeil1 for 30 min at 37 °C in 10 mM Tris-HCl, pH 7.6, 150 mM NaCl, 1 mM EDTA, 0.1 mg/mL BSA and 8% DMSO. The reaction was stopped by the addition of 1 volume of formamide loading buffer (96% formamide, 20 mM Tris/HCl pH 8.0 and 2 mM Na2EDTA), heated at 80 °C for 2 min and then analyzed by 20% Urea-PAGE, as previously described. […] Under these conditions, only 50% of the substrate is converted to the cleavage product (limiting enzyme concentration conditions). For an initial evaluation of the inhibitory effect, 40 µM of 2TX/TXn was used. The thio-compound was added to the reaction mixture before the final addition of the enzyme (competition condition). For the best identified inhibitors, a dose-response curve was generated and IC50^A determined (Figure 1 and Table 1).

A further test addresses T2, LlFpg/DNA complex C2 (Lactococcus lactis subsp. cremoris, UniProt P42371).
T2 construct: made in house; host or cells: E. coli BH540 (fpg defective)
T2 sequence (P42371 2-273 limits assumed): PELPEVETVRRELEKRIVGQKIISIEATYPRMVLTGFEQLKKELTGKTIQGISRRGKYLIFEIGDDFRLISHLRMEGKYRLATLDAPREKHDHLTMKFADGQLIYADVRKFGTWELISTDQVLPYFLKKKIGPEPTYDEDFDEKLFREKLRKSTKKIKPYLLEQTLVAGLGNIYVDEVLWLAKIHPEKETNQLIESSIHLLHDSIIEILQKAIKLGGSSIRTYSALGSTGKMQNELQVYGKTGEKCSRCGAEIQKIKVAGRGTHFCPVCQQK
Put plainly: EMSA, Fpg DNA binding to 14-mer [THF:C] duplex, non-specific complex C2 (Fpg/DNA 2/1). Particulars: for effect on stability of preformed complex C2 in the presence of TCEP: [1/1] molar ratio TCEP/compound (1 mM each), Figure S6; for number of TXn equivalents per one protein equivalent for 50% inhibition of DNA binding activity, C2: value in parentheses, 10 nM Fpg. An excerpt: To complement this study, we examined the effect of TXn on the binding of Fpg to a short DNA duplex containing a tetrahydrofuran (THF), a non-cleavable AP site analog. The enzyme specifically recognizes THF and forms a stable abortive complex with DNA [18, 34, 35, 36]. […] A representative titration experiment (with and without TCEP) of the 14-mer [THF:C] Fpg formed two stable complexes with this short DNA probe that were easily observed by EMSA: a high-affinity complex C1 corresponding to the lesion recognition complex (LRC), with nanomolar affinity, and a complex C2 only observed at higher Fpg concentrations. C2 results in C1 titration by a second Fpg molecule. This finding illustrates that the crystal structure of Fpg bound to 8-oxoG-carbanucleotide-containing DNA [38] (Figure S5). The stability of each preformed complex was then examined by EMSA in the presence of 2TX or TXn. […] The enzyme inactivation mediated by 2TX through ZnF oxidation that directly affects the DNA binding properties of the enzyme is also in agreement with this last observation.
The inhibitor concentrations that induced the loss of the half-maximal binding (IC50app^B) were determined from these curves and are reported in Table 1. IC50app^B compared well with IC50app^A. As observed above for the enzyme activity, strong reducers, such as TCEP, abolished the negative effects of 2TX and TXn on Fpg/DNA complex stability and formation. These findings again indicate that inhibition by thio-compounds essentially relies on the oxidation of the Fpg ZnF (for an example, see experiment with TX19, Figure S4). […] This troubling and unexpected observation led us to evaluate this effect with the TXn small library compounds. To prevent a side effect due to a possible partial reduction by TCEP, we performed EMSA in the presence of a 6.7-fold molar excess of TCEP with respect to 2TX and TXn after complex formation (Figure 3).
Figure 3 Impact of TXn on the non-specific Fpg/DNA complex C2 stability in highly reducing conditions. EMSA was performed as described in the ‘Material & Methods’, except TCEP was added at a 2 mM final concentration in each binding assay. (a) Representative experiment at 0.3 mM 2TX and more efficient TXn; (b) Dose-response with the best TXn. Upper panel: Representative EMSA experiment with TX10. Lower panel: Dose-response curves with the indicated TXn.
The DNA binding activity was measured using EMSA [37]. Briefly, 0.1 nM of the 5′-labeled 14-mer [THF:C] (see above) was incubated with the enzyme at 4 °C for 30 min in 25 mM HEPES/NaOH (pH 7.5), 150 mM NaCl, 5% glycerol, 0.1 mg/mL BSA and 8% DMSO. The incubation mixture was then loaded onto a native 10% polyacrylamide gel (Acryl/Bis 19/1) and electrophoresed at 25 V/cm for 90 min at 4 °C. After electrophoresis, the gels were dried and exposed overnight for autoradiography using a Typhoon imager and quantified with ImageQuant software. To evaluate the inhibitor effect of 2TX/TXn on the DNA binding activity of each Fpg/Nei enzyme, we first determined the experimental conditions required to bind 50% of the DNA probes without an inhibitor in the presence of 8% DMSO (limiting enzyme concentration). Under these conditions, we obtained the half-maximal DNA binding 0.25, 7 and 5 nM of Fpg, hNeil1 and mvNei1. We used this limited enzyme concentrations to evaluate the inhibitor effect of 2TX/TXn on the enzyme DNA binding activity. This effect was determined by the addition of the thio-compound in the pre-equilibrium mixture of the enzyme and DNA probe (30 min) and incubated for an additional 30 min at 4 °C. For the best inhibitors of Fpg, a dose-response curve was established from at least three independent experiments and the IC50 was determined (IC50^B, Table 1). […]
Rieux et al. Thiopurine derivative-induced Fpg/Nei DNA glycosylase inhibition:
structural, dynamic and functional insights
Figure S6. […]
(In general: In EMSA bound probe runs differently from free probe, usually more slowly.)

[1] abbreviates: catalytic activity at 37 °C, compound stock in DMSO, DHU:G 24-mer, read-out: IC50app^A (Fpg/Nei enzyme catalysis) mvNEI1.

The values below come from article PMC7139703, “Thiopurine Derivative-Induced Fpg/Nei DNA Glycosylase Inhibition: Structural, Dynamic and Functional Insights” (International Journal of Molecular Sciences, 2020).

Like-named read-outs stand apart in the source and are kept apart here.

T1 sequence (Q5UQ00 whole entry): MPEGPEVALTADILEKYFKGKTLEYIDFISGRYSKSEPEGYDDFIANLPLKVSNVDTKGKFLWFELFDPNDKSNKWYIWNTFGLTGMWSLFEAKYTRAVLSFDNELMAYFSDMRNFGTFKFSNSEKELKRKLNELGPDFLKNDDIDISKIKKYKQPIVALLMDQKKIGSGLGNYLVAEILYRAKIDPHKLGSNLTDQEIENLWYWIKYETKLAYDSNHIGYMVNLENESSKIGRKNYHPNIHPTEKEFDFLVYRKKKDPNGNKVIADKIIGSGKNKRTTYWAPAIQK

In turn, `O=c1[nH]c2[nH]c(=S)[nH]c(=O)c2[nH]1` [TX14, 2-thio-6,8-dioxopurine] returned an IC50 against mvNei1 of over 500 µM. For the same compound, on LlFpg/DNA complex C2, the “effect on stability of preformed complex C2 in the presence of TCEP” value (shortened to “effect on stability”) is on record as “moderate effect” and the “number of TXn equivalents per one protein equivalent for 50% inhibition of DNA binding activity, C2” value is “NA (2.8)”.
As to `FC(F)(F)c1nc(S)c2nc[nH]c2n1` [TX13, 2-trifluoromethyl-6-thiopurine], on mvNei1 (setting [1]), the IC50 is over 500 µM. For the same compound, on LlFpg/DNA complex C2, the “effect on stability” value was “strongly destabilized” and the “number of TXn equivalents per one protein equivalent for 50% inhibition of DNA binding activity, C2” value is reported as “NA (1.3)”.
In turn, `Nc1ncnc2[nH]c(S)nc12` [TX27] yielded an IC50 on mvNei1 of 277 ± 18 µM. At LlFpg/DNA complex C2, the “effect on stability” value is given as “strongly destabilized” and the “number of TXn equivalents per one protein equivalent for 50% inhibition of DNA binding activity, C2” value is recorded as “NA (4)”.
For `O=c1[nH]c(=S)[nH]c2[nH]c(=S)[nH]c12` [TX19], the “effect on mvNei1 catalytic activity” value at mvNei1 (Figure 4) is “apparent inhibitory effects”. Also, at mvNei1 (1 mM TCEP (DTT to a lesser extent), Figure 4), the “inhibition of mvNei1 DNA binding and catalytic activities in the presence of TCEP” value was “suppressed”. Also, the IC50 on mvNei1 (setting [1]) came out at 124 ± 4 µM. Further, at LlFpg/DNA complex C2, the “effect on stability” value was “moderate effect” and the “number of TXn equivalents per one protein equivalent for 50% inhibition of DNA binding activity, C2” value is listed as “NA (2)”.
`O=c1[nH]c(=S)[nH]c2nc[nH]c12` [Compound 2TX, 2-thioxanthine, reference compound]: the “effect on mvNei1 catalytic activity” value at mvNei1 (Figure 4) is given as “did not significantly affect”. For the same compound, on mvNei1 (setting [1]), the IC50 was over 500 µM. Also, at LlFpg/DNA complex C2, the “effect on stability” value is given as “moderate effect” and the “number of TXn equivalents per one protein equivalent for 50% inhibition of DNA binding activity, C2” value is “NA (9.7)”.
